Our source for the logD and logP values is the SangsterLogP compilation.

For the first series the following is noted: pH 1.0.
`Oc1cccc(Br)c1` yielded a logD of 2.59.

Regarding `O=C(O)c1cccc(Cl)c1`, the logD was 2.51.

Still in this series, the particulars now being: pH 13.0.
In the case of `Nc1ccc(Br)cc1`, the logD was determined as 2.

Consider `Nc1cccc(I)c1`, for which the log distribution coefficient (logD) turned out to be 2.86.

With `Nc1cccc([N+](=O)[O-])c1`, the logD is 1.43.

`Cc1ccccc1N` yielded a logD of 1.44.

`Nc1ccc(Cl)cc1` returned a logD of 1.8.

In turn, `Cc1cccc(N)c1` gave a logD of 1.49.

Conditions in the next series: not given
Consider `Oc1ccc(I)cc1`, for which the logP turned out to be 2.82.

`O=C(O)c1cccc(I)c1` gave a logP of 3.

The compound `O=C(O)c1ccc(F)cc1` had a logP of 1.99.
